From patent US8299111B2, “Compounds which modulate the CB2 receptor” (Boehringer Ingelheim International GmbH, priority 2006, dated 2012) come the findings set out here.

This experiment deals with T1, human CB2R (Homo sapiens, UniProt P34972).
T1 construct: host or cells: CHO cells
T1 sequence (P34972 whole entry): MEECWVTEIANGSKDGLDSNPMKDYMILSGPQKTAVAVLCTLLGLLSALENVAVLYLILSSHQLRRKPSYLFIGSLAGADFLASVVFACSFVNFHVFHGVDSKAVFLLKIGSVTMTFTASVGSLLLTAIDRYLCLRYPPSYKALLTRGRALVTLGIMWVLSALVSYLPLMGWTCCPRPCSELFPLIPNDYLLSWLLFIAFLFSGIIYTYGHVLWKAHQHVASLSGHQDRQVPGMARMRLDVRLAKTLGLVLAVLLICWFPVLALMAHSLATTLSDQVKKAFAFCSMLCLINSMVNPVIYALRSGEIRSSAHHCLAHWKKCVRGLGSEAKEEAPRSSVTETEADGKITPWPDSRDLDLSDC
Briefly: CB2R mediated modulation of cAMP synthesis. The class given is cell-based. Particulars: found through the use of the above described assays (binding and cAMP); CHO cells expressing human CB2R, forskolin-stimulated cAMP. The method, then: B. CB2R Mediated Modulation of cAMP Synthesis:
CHO cells expressing human CB2R (Euroscreen) were plated at a density of 5000 cells per well in 384 well plates and incubated overnight at 37° C. After removing the media, the cells were treated with test compounds diluted in stimulation buffer containing 1 mM IBMX, 0.25% BSA and 10 uM Forskolin. The assay was incubated for 30 minutes at 37° C. Cells were lysed and the cAMP concentration was measured using DiscoverX -XS cAMP kit, following the manufacturer's protocol. In this setting, agonists will decrease forskolin induced production of cAMP while inverse agonists will further increase forskolin induced production of cAMP. EC50 of agonists were calculated as follows. The maximal amount of cAMP produced by forskolin compared to the level of cAMP inhibited by 1 uM CP55940 is defined as 100%. The EC50 value of each test compound was determined as the concentration at which 50% of the forskolin-stimulated cAMP synthesis was inhibited. Data was analyzed using a four-parameter logistic model. (Model 205 of XLfit 4.0).
With `Cn1nc(-c2ccccc2)cc1NC(=O)C(C)(C)S(=O)(=O)c1ccc(Cl)cc1` [2-(4-Chloro-benzenesulfonyl)-2-methyl-N-(2-methyl-5-phenyl-2H-pyrazol-3-yl)-propionamide], the agonistic activity result is recorded as “agonistic activity”.
Next, `Cn1nc(-c2cccs2)cc1NC(=O)C(C)(C)S(=O)(=O)c1ccc(Cl)cc1` [2-(4-Chloro-benzenesulfonyl)-2-methyl-N-(2-methyl-5-thiophen-2-yl-2H-pyrazol-3-yl)-propionamide]: “agonistic activity”.
Next, `CC(C)(C(=O)Nc1ccccc1C(F)(F)F)S(=O)(=O)c1ccc(Cl)cc1` [2-(4-Chloro-benzenesulfonyl)-2-methyl-N-(2-trifluoromethyl-phenyl)-propionamide]: “agonistic activity”; `Cc1noc(NC(=O)C(C)(C)S(=O)(=O)c2ccc(Cl)cc2)c1-c1ccccc1` [2-(4-Chloro-benzenesulfonyl)-2-methyl-N-(3-methyl-4-phenyl-isoxazol-5-yl)-propionamide]: “agonistic activity”; `CC(C)(C(=O)Nc1nc(-c2ccccc2)no1)S(=O)(=O)c1ccc(Cl)cc1` [2-(4-Chloro-benzenesulfonyl)-2-methyl-N-(3-phenyl-[1,2,4]oxadiazol-5-yl)-propionamide]: “agonistic activity”.
Next, `CC(C)(C(=O)Nc1nc(-c2ccccc2)ns1)S(=O)(=O)c1ccc(Cl)cc1` [2-(4-Chloro-benzenesulfonyl)-2-methyl-N-(3-phenyl-[1,2,4]thiadiazol-5-yl)-propionamide]: “agonistic activity”; `CC(C)(C(=O)Nc1cc(-c2ccccc2)no1)S(=O)(=O)c1ccc(Cl)cc1` [2-(4-Chloro-benzenesulfonyl)-2-methyl-N-(3-phenyl-isoxazol-5-yl)-propionamide]: “agonistic activity”.
`CCCc1cc(NC(=O)C(C)(C)S(=O)(=O)c2ccc(Cl)cc2)on1` [2-(4-Chloro-benzenesulfonyl)-2-methyl-N-(3-propyl-isoxazol-5-yl)-propionamide]: the agonistic activity result was “agonistic activity”.
For the molecule `CC(C)(C(=O)Nc1cc(-c2cccs2)no1)S(=O)(=O)c1ccc(Cl)cc1` [2-(4-Chloro-benzenesulfonyl)-2-methyl-N-(3-thiophen-2-yl-isoxazol-5-yl)-propionamide], the agonistic activity entry was “agonistic activity”.
`CC(C)(C(=O)Nc1cccc(C(F)(F)F)c1)S(=O)(=O)c1ccc(Cl)cc1` [2-(4-Chloro-benzenesulfonyl)-2-methyl-N-(3-trifluoromethyl-phenyl)-propionamide]: the agonistic activity result is given as “agonistic activity”.
Consider `CC(C)(C(=O)Nc1ncccc1C(F)(F)F)S(=O)(=O)c1ccc(Cl)cc1` [2-(4-Chloro-benzenesulfonyl)-2-methyl-N-(3-trifluoromethyl-pyridin-2-yl)-propionamide], for which the agonistic activity result is listed as “agonistic activity”.
For the molecule `CC(C)(C(=O)Nc1nc2c(s1)CCCC2)S(=O)(=O)c1ccc(Cl)cc1` [2-(4-Chloro-benzenesulfonyl)-2-methyl-N-(4,5,6,7-tetrahydro-benzothiazol-2-yl)-propionamide], the agonistic activity result is on record as “agonistic activity”.
To `Cc1c(-c2ccccc2)noc1NC(=O)C(C)(C)S(=O)(=O)c1ccc(Cl)cc1` [2-(4-Chloro-benzenesulfonyl)-2-methyl-N-(4-methyl-3-phenyl-isoxazol-5-yl)-propionamide] belongs “agonistic activity”; to `Cc1ccnc(NC(=O)C(C)(C)S(=O)(=O)c2ccc(Cl)cc2)c1` [2-(4-Chloro-benzenesulfonyl)-2-methyl-N-(4-methyl-pyridin-2-yl)-propionamide], “agonistic activity”.
To `Cc1csc(NC(=O)C(C)(C)S(=O)(=O)c2ccc(Cl)cc2)n1` [2-(4-Chloro-benzenesulfonyl)-2-methyl-N-(4-methyl-thiazol-2-yl)-propionamide] belongs “agonistic activity”.
Next, `CC(C)(C(=O)Nc1nc(-c2ccccc2)co1)S(=O)(=O)c1ccc(Cl)cc1` [2-(4-Chloro-benzenesulfonyl)-2-methyl-N-(4-phenyl-oxazol-2-yl)-propionamide]: “agonistic activity”; `CC(C)(C(=O)Nc1nc(-c2ccccc2)cs1)S(=O)(=O)c1ccc(Cl)cc1` [2-(4-Chloro-benzenesulfonyl)-2-methyl-N-(4-phenyl-thiazol-2-yl)-propionamide]: “agonistic activity”.
Consider `CC(C)(C(=O)Nc1nc(CN2CCCCC2)cs1)S(=O)(=O)c1ccc(Cl)cc1` [2-(4-Chloro-benzenesulfonyl)-2-methyl-N-(4-piperidin-1-ylmethyl-thiazol-2-yl)-propionamide], for which the agonistic activity entry is “agonistic activity”.
Regarding `CC(C)(C(=O)Nc1nc(-c2ccccn2)cs1)S(=O)(=O)c1ccc(Cl)cc1` [2-(4-Chloro-benzenesulfonyl)-2-methyl-N-(4-pyridin-2-yl-thiazol-2-yl)-propionamide], the agonistic activity result is listed as “agonistic activity”.
In the case of `CC(C)(C(=O)Nc1nc(-c2cccnc2)cs1)S(=O)(=O)c1ccc(Cl)cc1` [2-(4-Chloro-benzenesulfonyl)-2-methyl-N-(4-pyridin-3-yl-thiazol-2-yl)-propionamide], the agonistic activity entry is on record as “agonistic activity”.
Next, `CC(C)(C(=O)Nc1nc(-c2ccncc2)cs1)S(=O)(=O)c1ccc(Cl)cc1` [2-(4-Chloro-benzenesulfonyl)-2-methyl-N-(4-pyridin-4-yl-thiazol-2-yl)-propionamide]: “agonistic activity”.
For the molecule `CC(C)(C(=O)Nc1nc(-c2cccs2)cs1)S(=O)(=O)c1ccc(Cl)cc1` [2-(4-Chloro-benzenesulfonyl)-2-methyl-N-(4-thiophen-2-yl-thiazol-2-yl)-propionamide], the agonistic activity entry is recorded as “agonistic activity”.
Regarding `CC(C)(C(=O)Nc1ccc(C(F)(F)F)cc1)S(=O)(=O)c1ccc(Cl)cc1` [2-(4-Chloro-benzenesulfonyl)-2-methyl-N-(4-trifluoromethyl-phenyl)-propionamide], the agonistic activity result is “agonistic activity”.
Next, `CC(C)(C(=O)Nc1cc(C(F)(F)F)ccn1)S(=O)(=O)c1ccc(Cl)cc1` [2-(4-Chloro-benzenesulfonyl)-2-methyl-N-(4-trifluoromethyl-pyridin-2-yl)-propionamide]: “agonistic activity”; `CC(C)(C(=O)Nc1nc(C(F)(F)F)cs1)S(=O)(=O)c1ccc(Cl)cc1` [2-(4-Chloro-benzenesulfonyl)-2-methyl-N-(4-trifluoromethyl-thiazol-2-yl)-propionamide]: “agonistic activity”; `Cc1cc(NC(=O)C(C)(C)S(=O)(=O)c2ccc(Cl)cc2)n(-c2ccccc2)n1` [2-(4-Chloro-benzenesulfonyl)-2-methyl-N-(5-methyl-2-phenyl-2H-pyrazol-3-yl)-propionamide]: “agonistic activity”.
To `Cc1sc(NC(=O)C(C)(C)S(=O)(=O)c2ccc(Cl)cc2)nc1-c1ccccc1` [2-(4-Chloro-benzenesulfonyl)-2-methyl-N-(5-methyl-4-phenyl-thiazol-2-yl)-propionamide] belongs “agonistic activity”; to `Cc1cc(NC(=O)C(C)(C)S(=O)(=O)c2ccc(Cl)cc2)no1` [2-(4-Chloro-benzenesulfonyl)-2-methyl-N-(5-methyl-isoxazol-3-yl)-propionamide], “agonistic activity”.
To `Cc1ccc(NC(=O)C(C)(C)S(=O)(=O)c2ccc(Cl)cc2)nc1` [2-(4-Chloro-benzenesulfonyl)-2-methyl-N-(5-methyl-pyridin-2-yl)-propionamide] belongs “agonistic activity”.
For `CC(C)(C(=O)Nc1n[nH]c(-c2ccccc2)n1)S(=O)(=O)c1ccc(Cl)cc1` [2-(4-Chloro-benzenesulfonyl)-2-methyl-N-(5-phenyl-2H-[1,2,4]triazol-3-yl)-propionamide], the agonistic activity result is listed as “agonistic activity”.
Next, `CC(C)(C(=O)Nc1nsc(-c2ccccc2)n1)S(=O)(=O)c1ccc(Cl)cc1` [2-(4-Chloro-benzenesulfonyl)-2-methyl-N-(5-phenyl-[1,2,4]thiadiazol-3-yl)-propionamide]: “agonistic activity”.
With `CC(C)(C(=O)Nc1nnc(-c2ccccc2)s1)S(=O)(=O)c1ccc(Cl)cc1` [2-(4-Chloro-benzenesulfonyl)-2-methyl-N-(5-phenyl-[1,3,4]thiadiazol-2-yl)-propionamide], the agonistic activity result is reported as “agonistic activity”.
Next, `CC(C)(C(=O)Nc1cc(-c2ccccc2)on1)S(=O)(=O)c1ccc(Cl)cc1` [2-(4-Chloro-benzenesulfonyl)-2-methyl-N-(5-phenyl-isoxazol-3-yl)-propionamide]: “agonistic activity”; `CC(C)(C(=O)Nc1ccc(-c2ccccc2)cn1)S(=O)(=O)c1ccc(Cl)cc1` [2-(4-Chloro-benzenesulfonyl)-2-methyl-N-(5-phenyl-pyridin-2-yl)-propionamide]: “agonistic activity”; `CC(C)(C(=O)Nc1ncc(-c2ccccc2)s1)S(=O)(=O)c1ccc(Cl)cc1` [2-(4-Chloro-benzenesulfonyl)-2-methyl-N-(5-phenyl-thiazol-2-yl)-propionamide]: “agonistic activity”.
Next, `CC(C)(C(=O)Nc1nnc(C(F)(F)F)s1)S(=O)(=O)c1ccc(Cl)cc1` [2-(4-Chloro-benzenesulfonyl)-2-methyl-N-(5-trifluoromethyl-[1,3,4]thiadiazol-2-yl)-propionamide]: “agonistic activity”.
